Measured values taken from PubChem BioAssay (NCI).
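Values below derive from 48-hour exposures of cells grown in 96-well plates, with endpoints linearly interpolated between the two concentrations bracketing the appropriate inhibition level. GI50 = concentration required for 50% inhibition of growth. TGI is the concentration that stops growth completely.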

Key:
Assay in all cases: NCI tumour cell line growth inhibition, 48 h
[1] = system: DLD-1 colon
[2] = system: DMS 114 small cell lung
[3] = system: DMS 273 small cell lung
[4] = system: KM20L2 colon
[5] = system: M19-MEL melanoma
[6] = system: P388 leukemia
[7] = system: SN12K1 renal
[8] = system: SNB-78 CNS
[9] = system: HOP-18 NSCLC
[10] = system: 786-0 renal

SMILES | TGI [1] | TGI [2] | TGI [3] | TGI [4] | TGI [5] | TGI [6] | TGI [7] | TGI [8] | TGI [9] | TGI [10] | other results
Nc1n[nH]c(=O)[nH]1 | > 100 µM | > 100 µM | > 100 µM | > 100 µM | > 100 µM | > 100 µM | > 100 µM | > 100 µM |  |  | 
O=[Se]([O-])c1ccccc1.O=[Se]([O-])c1ccccc1.[OH3+].[OH3+].[Pt+2] | 24.3 µM | 20.8 µM | 36 µM | 35.1 µM | 44.8 µM | 5.67 µM | 15 µM | 37.5 µM | 60.6 µM |  | GI50 [1]: 4.85 µM; GI50 [2]: 3.73 µM; GI50 [3]: 14.6 µM; GI50 [9]: 15.1 µM; GI50 [4]: 8.88 µM; GI50 [5]: 8.43 µM; GI50 [6]: 1.84 µM; GI50 [7]: 4.5 µM; GI50 [8]: 15.3 µM
COC1OC(=O)[C@H]2O[N+]([O-])=C(C)[C@@H]12 (some centres not stated) | > 100 µM | > 100 µM |  | > 100 µM | > 100 µM | > 100 µM | > 100 µM | > 100 µM | > 100 µM |  | 
O=C(O)c1ccc(NC(c2ccccc2)c2ccc3cccnc3c2O)cc1 (configuration not stated) |  |  |  |  |  |  |  |  |  | > 76.6 µM | 
CCC(=O)C(c1ccccc1)c1ccccn1 (configuration not stated) |  |  |  |  |  |  |  |  |  | > 100 µM | 
OCC1CCCC(n2cnc3c(=S)nc[nH]c32)O1 (configuration not stated) |  |  |  |  |  |  |  |  |  | > 100 µM | 
